For the assay, the target named is Jack bean urease (Canavalia ensiformis, UniProt P07374). In words: urease inhibition assay, indophenol. In kind it is biochemical.

One molecule from paper PMC9185314 (RSC Advances, 2022) can be followed below.

Molecules are shown by their SMILES.

Chain of Jack bean urease (P07374 whole entry, looked up): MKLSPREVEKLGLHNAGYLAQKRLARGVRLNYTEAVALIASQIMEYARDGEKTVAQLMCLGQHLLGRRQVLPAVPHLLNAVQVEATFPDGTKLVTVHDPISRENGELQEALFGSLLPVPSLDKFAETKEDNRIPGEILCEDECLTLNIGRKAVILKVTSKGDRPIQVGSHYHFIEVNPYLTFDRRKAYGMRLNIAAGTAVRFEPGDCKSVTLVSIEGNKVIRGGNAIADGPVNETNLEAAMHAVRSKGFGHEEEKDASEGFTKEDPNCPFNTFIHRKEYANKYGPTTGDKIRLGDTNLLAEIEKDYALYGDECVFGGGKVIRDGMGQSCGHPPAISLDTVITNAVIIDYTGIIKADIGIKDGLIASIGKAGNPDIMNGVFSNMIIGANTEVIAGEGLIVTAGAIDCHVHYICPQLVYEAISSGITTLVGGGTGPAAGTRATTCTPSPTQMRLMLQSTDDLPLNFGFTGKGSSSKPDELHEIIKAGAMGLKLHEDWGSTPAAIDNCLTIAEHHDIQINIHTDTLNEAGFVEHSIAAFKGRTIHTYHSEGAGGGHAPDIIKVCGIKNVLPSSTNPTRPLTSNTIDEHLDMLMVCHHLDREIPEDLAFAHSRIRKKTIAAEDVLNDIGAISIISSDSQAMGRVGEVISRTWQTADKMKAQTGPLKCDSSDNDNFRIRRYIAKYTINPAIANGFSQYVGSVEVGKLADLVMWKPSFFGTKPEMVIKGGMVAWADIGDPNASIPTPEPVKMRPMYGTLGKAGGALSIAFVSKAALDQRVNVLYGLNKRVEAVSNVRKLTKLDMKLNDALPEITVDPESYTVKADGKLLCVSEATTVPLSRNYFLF

Turning to `CC(=O)c1ccc(NC(=S)NC(=O)c2ccc(Cl)cc2Cl)cc1` [compound 4, N-((4-Acetylphenyl)carbamothioyl)-2,4-dichlorobenzamide], the IC50 worked out at 38.9 ± 1.7 nM.

What is called IC50 is the concentration that inhibits the measured activity by half. Read a high IC50 as weaker potency.
